# Assay results as given in patent US4971974A, “Benzothiophenes as appetite suppressants” (Neurex Corporation, priority 1988, dated 1990).
# Experiments:
# [1] = Alteration of macronutrient preference in rats, 75% or 25% carbohydrate test diets (Example 2); assay type: in vivo, rats (Sprague-Dawley); conditions: rat; for cumulative amount of 25% Carbohydrate diet consumed, 1 hr / cumulative amount of 25% Carbohydrate diet consumed, 2 hr / cumulative amount of 75% Carbohydrate diet consumed, 1 hr / cumulative amount of 75% Carbohydrate diet consumed, 2 hr: mean±SEM; for cumulative amount of 25% Carbohydrate diet consumed, 1 hr: saline 6.4 ± 0.5; for cumulative amount of 25% Carbohydrate diet consumed, 2 hr: saline 7.5 ± 1.7; for cumulative amount of 75% Carbohydrate diet consumed, 1 hr: saline 6.6 ± 0.5; for cumulative amount of 75% Carbohydrate diet consumed, 1 hr / cumulative amount of 75% Carbohydrate diet consumed, 2 hr: significant p < 0.01; for cumulative amount of 75% Carbohydrate diet consumed, 2 hr: saline 8.4 ± 1.6
# Experimental: Sixty adult male rats (Sprague-Dawley, 225-300 g) were acclimated to laboratory conditions for a period of 10 days, during which they were allowed unrestricted access to food (Ralston-Purina #5001M) and water. All subjects were housed in individual cages, and the animal facility was maintained on a 12:12 hour light:dark cycle at 24°-27° C.
# Animals were assigned to 6 groups (10 per group), then allowed to consume, ad libitum, one of two iso-nitrogenous test diets containing either 75% or 25% carbohydrate. After 3 days, food jars were removed. After an additional 24 hours, rats were administered either saline or 1,2,3,4-tetrahydrobenzo[b]thieno[2,3-c]pyridine (1.5 or 3.0 mg/Kg body weight), then given immediate access to the test diets. Data listed in Table 3 indicate the cumulative amount in grams (mean±SEM) of each diet consumed by the experimental and control groups during the subsequent 2-hour period.
# [2] = U.S. Pat. Nos. 3,636,218; 3,518,278; Miller et al; cited from earlier work
# [3] = Acute toxicity studies in mice; conditions: mouse, in vivo, ip, intraperitoneally
# Experimental: In acute toxicity studies in mice, 1,2,3,4-tetrahydrobenzo[b]thieno[2,3-c]pyridine yields LD50 values in excess of 100 mg/kg when administered intraperitoneally and 100 mg/kg when administered by the oral route.
# [4] = Food intake in food-deprived rats after ip injection (Example 1); assay type: in vivo; conditions: for Post-Drug Food Intake, 0-1 hr / Post-Drug Food Intake, 1-2 hr / Post-Drug Food Intake, 2-6 hr / Post-Drug Food Intake, 6-8 hr / Post-Drug Food Intake, 8-24 hr / Cumulative Food Intake, 1 hr / Cumulative Food Intake, 2 hr / Cumulative Food Intake, 6 hr / Cumulative Food Intake, 8 hr / Cumulative Food Intake, 24 hr: mean ± SD; for Post-Drug Food Intake, 0-1 hr / Cumulative Food Intake, 1 hr: control 5.3 ± 1.3; for Post-Drug Food Intake, 1-2 hr: control 0.6 ± 0.7; for Post-Drug Food Intake, 2-6 hr: control 2.5 ± 1.6; for Post-Drug Food Intake, 6-8 hr: control 2.0 ± 1.0; for Post-Drug Food Intake, 8-24 hr: control 20.8 ± 1.7; for Cumulative Food Intake, 2 hr: control 5.9 ± 1.2; for Cumulative Food Intake, 6 hr: control 8.4 ± 0.9; for Cumulative Food Intake, 8 hr: control 10.4 ± 1.6; for Cumulative Food Intake, 24 hr: control 31.2 ± 2.1
# Experimental: Forty-eight 70-to-80-day-old male rats (Bantin & Kingman, Fremont, Calif.) were housed singly in suspended cages, and were acclimated to the laboratory setting for a period of 12 days prior to testing. During this time, they were allowed ad libitum access to food (Ralston-Purina #5001M) and water. The room was kept at 24°-27° C. and maintained on a 12:12-hr light:dark schedule (0700-1900 h).
# Animals matched by body weight and mean daily food intake were assigned to 4 groups (n=12/group). Food jars were removed at 0900 h. Twenty-four hours later, rats were injected with either sterile 0.9% saline or saline containing 1,2,3,4-tetrahydrobenzo[b]thieno[2,3-c]pyridine HCl (5, 10, or 25 mg/kg, ip). Pre-weighed food jars containing meal (Ralston-Purina #5001M) were presented immediately post-injection. These were weighed at intervals over the next 24 hours, and food consumption was calculated for each interval. Animals were provided with water in quantities sufficient for ad libitum consumption throughout the experiment.
# To assess the duration of the drug-induced anorexia and rebound feeding behavior, food intake was measured at several time intervals after drug administration.
# [5] = in vivo; cited from earlier work
# [6] = rat, 5 mg/Kg ip, significant p < 0.02
# [7] = rat, 10 mg/Kg ip, significant p < 0.02
# [8] = rat, 25 mg/Kg ip, significant p < 0.05
# [9] = rat, 25 mg/Kg ip, significant p < 0.02
smiles,measurement,setting,value
"c1ccc2c3c(sc2c1)CNCC3 [1,2,3,4-tetrahydrobenzo[b]thieno[2,3-c]pyridine]","cumulative amount of 25% Carbohydrate diet consumed, 1 hr",[1]; 1.5 mg/Kg,5.6 ± 0.3 grams
same,"cumulative amount of 25% Carbohydrate diet consumed, 2 hr",[1]; 1.5 mg/Kg,7.6 ± 1.0 grams
same,"cumulative amount of 75% Carbohydrate diet consumed, 1 hr",[1]; 1.5 mg/Kg,4.4 ± 0.2 grams
same,"cumulative amount of 75% Carbohydrate diet consumed, 2 hr",[1]; 1.5 mg/Kg,5.8 ± 0.8 grams
same,"cumulative amount of 25% Carbohydrate diet consumed, 1 hr",[1]; 3.0 mg/Kg,5.4 ± 0.3 grams
same,"cumulative amount of 25% Carbohydrate diet consumed, 2 hr",[1]; 3.0 mg/Kg,7.0 ± 1.1 grams
same,"cumulative amount of 75% Carbohydrate diet consumed, 1 hr",[1]; 3.0 mg/Kg,4.5 ± 0.2 grams
same,"cumulative amount of 75% Carbohydrate diet consumed, 2 hr",[1]; 3.0 mg/Kg,6.0 ± 1.3 grams
same,consumption of low carbohydrate diet vs controls,"[1]; 1.5 or 3.0 mg/Kg, 25% carbohydrate",consumed equivalent quantities of the low carbohydrate diet
same,consumption of high carbohydrate diet vs controls,"[1]; 1.5 or 3.0 mg/Kg, 75% carbohydrate",consumed significantly less of the high carbohydrate diet than did controls
same,central nervous system depression,[2],CNS depressants and tranquilizing agents
same,LD50,[3],> 100 mg/kg
same,"Post-Drug Food Intake, 0-1 hr","[4]; rat, 5 mg/Kg ip, significant p < 0.05",1.3 ± 0.6 gm
same,"Post-Drug Food Intake, 1-2 hr","[4]; rat, 5 mg/Kg ip",1.2 ± 0.6 gm
same,"Post-Drug Food Intake, 2-6 hr","[4]; rat, 5 mg/Kg ip",4.9 ± 1.6 gm
same,"Post-Drug Food Intake, 6-8 hr","[4]; rat, 5 mg/Kg ip",1.8 ± 1.3 gm
same,"Post-Drug Food Intake, 8-24 hr","[4]; rat, 5 mg/Kg ip",18.2 ± 1.9 gm
same,"Cumulative Food Intake, 1 hr",[4]; [6],1.3 ± 0.6 gm
same,"Cumulative Food Intake, 2 hr",[4]; [6],2.5 ± 0.7 gm
same,"Cumulative Food Intake, 6 hr","[4]; rat, 5 mg/Kg ip",7.4 ± 1.6 gm
same,"Cumulative Food Intake, 8 hr","[4]; rat, 5 mg/Kg ip",9.2 ± 1.6 gm
same,"Cumulative Food Intake, 24 hr","[4]; rat, 5 mg/Kg ip",27.4 ± 2.8 gm
same,food consumption in rats,"[4]; rat, 5 mg/kg intraperitoneally",significantly reduce food consumption in rats
same,"Post-Drug Food Intake, 0-1 hr","[4]; rat, 10 mg/Kg ip, significant p < 0.05",0.9 ± 0.9 gm
same,"Post-Drug Food Intake, 1-2 hr","[4]; rat, 10 mg/Kg ip",1.1 ± 0.8 gm
same,"Post-Drug Food Intake, 2-6 hr","[4]; rat, 10 mg/Kg ip",4.3 ± 1.8 gm
same,"Post-Drug Food Intake, 6-8 hr","[4]; rat, 10 mg/Kg ip",1.4 ± 0.6 gm
same,"Post-Drug Food Intake, 8-24 hr","[4]; rat, 10 mg/Kg ip",19.2 ± 2.8 gm
same,"Cumulative Food Intake, 1 hr",[4]; [7],0.9 ± 0.9 gm
same,"Cumulative Food Intake, 2 hr",[4]; [7],2.0 ± 1.1 gm
same,"Cumulative Food Intake, 6 hr","[4]; rat, 10 mg/Kg ip",6.3 ± 2.3 gm
same,"Cumulative Food Intake, 8 hr","[4]; rat, 10 mg/Kg ip",7.7 ± 2.5 gm
same,"Cumulative Food Intake, 24 hr",[4]; [7],26.8 ± 2.8 gm
same,"Post-Drug Food Intake, 0-1 hr",[4]; [8],0.1 ± 0.2 gm
same,"Post-Drug Food Intake, 1-2 hr","[4]; rat, 25 mg/Kg ip",0.1 ± 0.2 gm
same,"Post-Drug Food Intake, 2-6 hr","[4]; rat, 25 mg/Kg ip",2.1 ± 2.3 gm
same,"Post-Drug Food Intake, 6-8 hr","[4]; rat, 25 mg/Kg ip",0.9 ± 0.7 gm
same,"Post-Drug Food Intake, 8-24 hr",[4]; [8],17.1 ± 2.1 gm
same,"Cumulative Food Intake, 1 hr",[4]; [9],0.1 ± 0.2 gm
same,"Cumulative Food Intake, 2 hr",[4]; [9],0.2 ± 0.3 gm
same,"Cumulative Food Intake, 6 hr",[4]; [9],2.2 ± 2.4 gm
same,"Cumulative Food Intake, 8 hr",[4]; [9],3.0 ± 2.6 gm
same,"Cumulative Food Intake, 24 hr",[4]; [9],20.1 ± 2.6 gm
same,cumulative food intake at 24 hours vs controls,"[4]; rat, 25 mg/kg ip, 24 hours",substantially lower cumulative food intake at 24 hours post-injection than controls
same,"food consumption, dose relation","[4]; rat, 5, 10, 25 mg/kg ip",dose-related decrement in food consumption
same,rebound feeding in the 1-6 hr interval,"[4]; rat, 5 and 10 mg/kg ip, not statistically significant",varying degrees of rebound feeding
same,food intake at 2 hours post-injection vs control,"[4]; rat, all experimental groups (5, 10, 25 mg/kg ip), 2 hours",significantly lower than control values
same,food intake in the first hour after drug administration,"[4]; rat, ip, first hour",highly significant fall in food intake
O=C(NCCN1CCOCC1)c1sc2ccccc2c1Br [3-bromo-2-(N-morpholinoethyl)benzo[b]thiophene carboximide],anticonvulsant properties,[5],anticonvulsant properties
same,antidepressant activity,[5],antidepressant activity
